Tests used:
Experiment in all cases: relative viability (nuclei count vs DMSO), 5 days (fraction); higher = more cells survive
[1] = compound: C1/C(=C\C2=CC=CS2)/C(=O)/C(=C/C3=CC=CS3)/C1 + CC(C)C[C@H](NC(=O)[C@H](Cc1ccccc1)NC(=O)c1cnccn1)B(O)O [Bortezomib] (partner 0.002 µM)
Method in brief: (§1)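 Five library-drug doses in √10 steps were combined with a fixed anchor-drug dose, or a single drug was given alone, by pin tool to lung cancer cell lines in 1536-well plates the day after seeding. Nuclei were stained and counted after 5 days. Relative viability is the nuclei count in treated wells over that in vehicle wells, taken as the median of duplicate plates.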

[2] = compound: C1/C(=C\C2=CC=CS2)/C(=O)/C(=C/C3=CC=CS3)/C1 + C[C@@H](Oc1cc(-c2cnn(C3CCNCC3)c2)cnc1N)c1c(Cl)ccc(F)c1Cl [Crizotinib] (partner 1 µM)
Method in brief: as §1

TPCA-1 + Decitabine = compound: C1=CC(=CC=C1C2=CC(=C(S2)NC(=O)N)C(=O)N)F [TPCA-1] + Nc1ncn([C@H]2C[C@H](O)[C@@H](CO)O2)c(=O)n1 [Decitabine] (partner 2 µM)
Method in brief: as §1

[3] = compound: C[C@]12O[C@H](C[C@]1(O)CO)n1c3ccccc3c3c4c(c5c6ccccc6n2c5c31)CNC4=O [Lestaurtinib] + CCNC(=O)c1noc(-c2cc(C(C)C)c(O)cc2O)c1-c1ccc(CN2CCOCC2)cc1 [Luminespib] (partner 0.01 µM)
Method in brief: as §1

Cell Line: COR-L 105
- relative viability ([1]; first compound 0.2 µM): 1.02
- relative viability ([1]; first compound 0.6325 µM): 0.73
- relative viability ([1]; first compound 2 µM): 1.03
- relative viability ([1]; first compound 6.325 µM): 0.678
- relative viability ([1]; first compound 20 µM): 0.662
- relative viability ([2]; first compound 0.2 µM): 0.861
- relative viability ([2]; first compound 0.6325 µM): 1.03
- relative viability ([2]; first compound 2 µM): 0.885
- relative viability ([2]; first compound 6.325 µM): 0.695
- relative viability ([2]; first compound 20 µM): 0.646
- relative viability (TPCA-1 + Decitabine; first compound 0.04 µM): 0.711
- relative viability (TPCA-1 + Decitabine; first compound 0.1265 µM): 0.622
- relative viability (TPCA-1 + Decitabine; first compound 0.4 µM): 0.735
- relative viability (TPCA-1 + Decitabine; first compound 1.265 µM): 0.612
- relative viability (TPCA-1 + Decitabine; first compound 4 µM): 0.537
- relative viability ([3]; first compound 0.005 µM): 0.843
- relative viability ([3]; first compound 0.01581 µM): 0.826
- relative viability ([3]; first compound 0.05 µM): 0.532
- relative viability ([3]; first compound 0.1581 µM): 0.67
- relative viability ([3]; first compound 0.5 µM): 0.263

Cell Line: 201T
- relative viability ([1]; first compound 0.2 µM): 1.17
- relative viability ([1]; first compound 0.6325 µM): 1.08
- relative viability ([1]; first compound 2 µM): 1.13
- relative viability ([1]; first compound 6.325 µM): 1.04
- relative viability ([1]; first compound 20 µM): 1.08
- relative viability ([2]; first compound 0.2 µM): 1.05
- relative viability ([2]; first compound 0.6325 µM): 1.04
- relative viability ([2]; first compound 2 µM): 1.07
- relative viability ([2]; first compound 6.325 µM): 0.996
- relative viability ([2]; first compound 20 µM): 1.01
- relative viability (TPCA-1 + Decitabine; first compound 0.04 µM): 0.901
- relative viability (TPCA-1 + Decitabine; first compound 0.1265 µM): 0.868
- relative viability (TPCA-1 + Decitabine; first compound 0.4 µM): 0.889
- relative viability (TPCA-1 + Decitabine; first compound 1.265 µM): 0.869
- relative viability (TPCA-1 + Decitabine; first compound 4 µM): 0.941
- relative viability ([3]; first compound 0.005 µM): 1.16
- relative viability ([3]; first compound 0.01581 µM): 1.07
- relative viability ([3]; first compound 0.05 µM): 1.14
- relative viability ([3]; first compound 0.1581 µM): 1.09
- relative viability ([3]; first compound 0.5 µM): 0.357

Cell Line: NCI-H2126
- relative viability ([1]; first compound 0.2 µM): 1.16
- relative viability ([1]; first compound 0.6325 µM): 1.1
- relative viability ([1]; first compound 2 µM): 1.21
- relative viability ([1]; first compound 6.325 µM): 0.994
- relative viability ([1]; first compound 20 µM): 1.1
- relative viability ([2]; first compound 0.2 µM): 1
- relative viability ([2]; first compound 0.6325 µM): 1.1
- relative viability ([2]; first compound 2 µM): 0.989
- relative viability ([2]; first compound 6.325 µM): 0.887
- relative viability ([2]; first compound 20 µM): 0.986
- relative viability (TPCA-1 + Decitabine; first compound 0.04 µM): 0.582
- relative viability (TPCA-1 + Decitabine; first compound 0.1265 µM): 0.577
- relative viability (TPCA-1 + Decitabine; first compound 0.4 µM): 0.632
- relative viability (TPCA-1 + Decitabine; first compound 1.265 µM): 0.614
- relative viability (TPCA-1 + Decitabine; first compound 4 µM): 0.514
- relative viability ([3]; first compound 0.005 µM): 0.944
- relative viability ([3]; first compound 0.01581 µM): 0.891
- relative viability ([3]; first compound 0.05 µM): 0.776
- relative viability ([3]; first compound 0.1581 µM): 0.817
- relative viability ([3]; first compound 0.5 µM): 0.538

Cell Line: LC-2-ad
- relative viability ([1]; first compound 0.2 µM): 1.03
- relative viability ([1]; first compound 0.6325 µM): 1.05
- relative viability ([1]; first compound 2 µM): 1.02
- relative viability ([1]; first compound 6.325 µM): 0.871
- relative viability ([1]; first compound 20 µM): 1.02
- relative viability ([2]; first compound 0.2 µM): 0.488
- relative viability ([2]; first compound 0.6325 µM): 0.503
- relative viability ([2]; first compound 2 µM): 0.454
- relative viability ([2]; first compound 6.325 µM): 0.368
- relative viability ([2]; first compound 20 µM): 0.484
- relative viability (TPCA-1 + Decitabine; first compound 0.04 µM): 0.773
- relative viability (TPCA-1 + Decitabine; first compound 0.1265 µM): 0.678
- relative viability (TPCA-1 + Decitabine; first compound 0.4 µM): 0.741
- relative viability (TPCA-1 + Decitabine; first compound 1.265 µM): 0.854
- relative viability (TPCA-1 + Decitabine; first compound 4 µM): 0.776
- relative viability ([3]; first compound 0.005 µM): 1.1
- relative viability ([3]; first compound 0.01581 µM): 1.21
- relative viability ([3]; first compound 0.05 µM): 0.799
- relative viability ([3]; first compound 0.1581 µM): 0.617
- relative viability ([3]; first compound 0.5 µM): 0.372

Cell Line: NCI-H2085
- relative viability ([1]; first compound 0.2 µM): 1.16
- relative viability ([1]; first compound 0.6325 µM): 1.08
- relative viability ([1]; first compound 2 µM): 1.15
- relative viability ([1]; first compound 6.325 µM): 1.02
- relative viability ([1]; first compound 20 µM): 1.03
- relative viability ([2]; first compound 0.2 µM): 0.789
- relative viability ([2]; first compound 0.6325 µM): 0.935
- relative viability ([2]; first compound 2 µM): 0.83
- relative viability ([2]; first compound 6.325 µM): 0.856
- relative viability ([2]; first compound 20 µM): 0.952
- relative viability (TPCA-1 + Decitabine; first compound 0.1265 µM): 0.531
- relative viability (TPCA-1 + Decitabine; first compound 0.4 µM): 0.618
- relative viability (TPCA-1 + Decitabine; first compound 1.265 µM): 0.579
- relative viability (TPCA-1 + Decitabine; first compound 4 µM): 0.665
- relative viability ([3]; first compound 0.005 µM): 0.436
- relative viability ([3]; first compound 0.01581 µM): 0.449
- relative viability ([3]; first compound 0.05 µM): 0.57
- relative viability ([3]; first compound 0.1581 µM): 0.41
- relative viability ([3]; first compound 0.5 µM): 0.337

Cell Line: H3255
- relative viability ([1]; first compound 0.2 µM): 0.778
- relative viability ([1]; first compound 0.6325 µM): 0.82
- relative viability ([1]; first compound 2 µM): 0.71
- relative viability ([1]; first compound 6.325 µM): 0.84
- relative viability ([1]; first compound 20 µM): 0.618
- relative viability ([2]; first compound 0.2 µM): 0.847
- relative viability ([2]; first compound 0.6325 µM): 1.06
- relative viability ([2]; first compound 2 µM): 0.793
- relative viability ([2]; first compound 6.325 µM): 0.8
- relative viability ([2]; first compound 20 µM): 0.845
- relative viability (TPCA-1 + Decitabine; first compound 0.04 µM): 0.71
- relative viability (TPCA-1 + Decitabine; first compound 0.1265 µM): 0.553
- relative viability (TPCA-1 + Decitabine; first compound 0.4 µM): 0.676
- relative viability (TPCA-1 + Decitabine; first compound 1.265 µM): 0.513
- relative viability (TPCA-1 + Decitabine; first compound 4 µM): 0.475
- relative viability ([3]; first compound 0.005 µM): 0.766
- relative viability ([3]; first compound 0.01581 µM): 0.94
- relative viability ([3]; first compound 0.05 µM): 0.835
- relative viability ([3]; first compound 0.1581 µM): 0.716
- relative viability ([3]; first compound 0.5 µM): 0.486

Cell Line: A-427
- relative viability ([1]; first compound 0.2 µM): 1.07
- relative viability ([1]; first compound 0.6325 µM): 1.08
- relative viability ([1]; first compound 2 µM): 0.961
- relative viability ([1]; first compound 6.325 µM): 0.993
- relative viability ([1]; first compound 20 µM): 0.981
- relative viability ([2]; first compound 0.2 µM): 1.06
- relative viability ([2]; first compound 0.6325 µM): 0.888
- relative viability ([2]; first compound 2 µM): 0.946
- relative viability ([2]; first compound 6.325 µM): 0.813
- relative viability ([2]; first compound 20 µM): 0.955
- relative viability (TPCA-1 + Decitabine; first compound 0.04 µM): 0.62
- relative viability (TPCA-1 + Decitabine; first compound 0.1265 µM): 0.535
- relative viability (TPCA-1 + Decitabine; first compound 0.4 µM): 0.591
- relative viability (TPCA-1 + Decitabine; first compound 1.265 µM): 0.564
- relative viability (TPCA-1 + Decitabine; first compound 4 µM): 0.504
- relative viability ([3]; first compound 0.005 µM): 1.03
- relative viability ([3]; first compound 0.01581 µM): 0.797
- relative viability ([3]; first compound 0.05 µM): 0.649
- relative viability ([3]; first compound 0.1581 µM): 0.298
- relative viability ([3]; first compound 0.5 µM): 0.185

Cell Line: HARA
- relative viability ([1]; first compound 0.2 µM): 1.23
- relative viability ([1]; first compound 0.6325 µM): 1.1
- relative viability ([1]; first compound 2 µM): 1.08
- relative viability ([1]; first compound 6.325 µM): 0.89
- relative viability ([1]; first compound 20 µM): 1.07
- relative viability ([2]; first compound 0.2 µM): 0.985
- relative viability ([2]; first compound 0.6325 µM): 1.05
- relative viability ([2]; first compound 2 µM): 1.03
- relative viability ([2]; first compound 6.325 µM): 0.758
- relative viability ([2]; first compound 20 µM): 1.03
- relative viability (TPCA-1 + Decitabine; first compound 0.04 µM): 0.576
- relative viability (TPCA-1 + Decitabine; first compound 0.1265 µM): 0.54
- relative viability (TPCA-1 + Decitabine; first compound 0.4 µM): 0.844
- relative viability (TPCA-1 + Decitabine; first compound 1.265 µM): 0.462
- relative viability (TPCA-1 + Decitabine; first compound 4 µM): 0.492
- relative viability ([3]; first compound 0.005 µM): 0.682
- relative viability ([3]; first compound 0.01581 µM): 0.847
- relative viability ([3]; first compound 0.05 µM): 0.681
- relative viability ([3]; first compound 0.1581 µM): 0.872
- relative viability ([3]; first compound 0.5 µM): 0.0984

— the supplement of paper PMC10307832
